The text below walks through data of patent US9156840B2, “D2 antagonists, methods of synthesis and methods of use” (ALTOS THERAPEUTICS, LLC, priority 2010, dated 2015).

The assay concerns the target T1, human D2 receptor (Homo sapiens, UniProt P14416).
T1 construct: expressed in transfected cells; cDNA from Origene clones TC308892 and SC123573
As to the kind of experiment: D2 receptor radioligand binding assay (membranes of HEK-293 cells expressing human D2 receptor). The conditions noted are these: radioligand displacement, HEK293 membranes, 37° C. for 120 minutes; read-out: Affinity Score (IC50 values for D2 on a scale of 1 through 5). How it is done: Affinity for the dopamine D2 receptor was tested in vitro, and the following describes the construction of cell lines expressing human D2 receptor, as well as the binding assays themselves.
Establishment of Stable Cell Lines Expressing Either the Cloned Human D2S Receptor or the Cloned Human D2L Receptor.
The human D2 receptor exists in two isoforms: the short form (D2S) and the long form (D2L). The two isoforms are generated from the D2 gene by alternative splicing and the D2L isoform differs from the D2S isoform by the addition of 29 amino acids in the third intracellular loop of its protein structure.
To establish HEK-293 cell lines stably expressing either the human D2S or the human D2L, the human dopamine D2S receptor (Genebank Accession Number NM_016574) and human dopamine D2L receptor (Genebank Accession Number BC021195) were amplified by PCR from Origene cDNA clones TC308892 and SC123573 (respectively) using the following primers: 5-[…]-3 (SEQ ID NO: 1) sense and 5-[…]-3 (SEQ ID NO: 2) antisense. The resulting PCR products were respectively cloned into pENTR-D-TOPO (Invitrogen), sequenced and then transferred into the pCDNA3.2-DEST (Invitrogen) using the LR-clonasc gateway reaction (Invitrogen) and sequenced again to verify the genes sequence.
HEK293 cells were maintained in Eagles Minimum Essential Medium (MEM) supplemented with 0.292 g/L L-glutamine and 10% (v/v) fetal calf serum at 37° C. in a 5% CO2 humidified atmosphere. Cells were grown to 60-80% confluency in 10 cm dishes before transfection. Transfection of the D2S and D2L containing pcDNA3.2-DEST into HEK-293 cells were performed using Lipofectamine 2000 (Invitrogen). Transfected cells were seeded and diluted 2 days after transfection and maintained in culture medium supplemented with 500 μg/mL G418. The HEK-293 cell line expressing the huD2S (R2D2S) and the huD2L (R2D2L) were maintained in culture medium supplemented with 500 μg/mL G418.
D2 Receptor Binding Assays
HEK293 cells were in Eagles Minimum Essential Medium (MEM) supplemented with 10% FBS, 0.292 g/liter L-glutamine, 10^5 units/liter penicillin, 100 mg/liter streptomycin and […] Geneticin at 37° C. in a 5% CO2 humidified atmosphere. Cells were grown to 80-90% confluence and harvested with cell stripper (Cellgro #25-056-CI). Cells were then washed with PBS (2×). Cells were either pelleted and frozen at −80° C. or membranes were prepared immediately.
Cells from pellet were resuspended in homogenization buffer (15 mM Tris*HCl, 2 mM MgCl2*6H2O, 0.3 mM EDTA, 1 mM EGTA pH 7.4 @ 4° C.). Cells were then homogenized using a Polytron (PT 1200) homogenizer at setting 6 for 10 seconds. Crude membranes were pelleted at 39, 412 g for 15 min, at 4° C. (2×) in a Sorval RC6 plus centrifuge. Membranes were finally resuspended in resuspension buffer (50 mM Tris*HCl, 120 mM NaCl, 10 mM MgCl2*6H2O, 1 mM EDTA pH 7.4 @ 4° C.) and sonicated (Fisher Sonic Dismembrator) at setting 5 for 10 seconds.
The radioligand binding assays were conducted in microtiter plates (Costar #3961) with a final volume of 1.0 mL.
The membranes were thawed at room temperature, briefly homogenized using a sonicator, diluted in assay buffer and kept on wet ice until being added to the assay plate. Membranes were diluted to a final target tissue concentration of 10 μg protein per well. The specific binding should be greater than 80% with less than 10% total radioligand bound to minimize ligand depletion errors.
First compound of the invention (50 μL) or assay buffer (50 mM Tris*HCl, 120 mM NaCl, 5 mM MgCl2*6H2O, 1 mM EDTA, 5 mM KCl pH 7.4 @37° C. plus 0.025% BSA), buffer (700 μL) and then membrane (200 μL) were added to the deep well assay plate, which was then shaken for 10 minutes. Finally, radioligand (50 μL) was added.
The assay plates were incubated at 37° C. for 120 minutes.
The assay plate were filtered over 0.3% PEI pretreated glass fiber filtermats (GF/C) using a Packard Filtermate cell harvester. […]
(In general: Loss of bound radioactivity is the signal in a displacement assay; it reports binding, not function.)

Counter-ions that a name gives are not always drawn. Where only a bound is given, the exact number is not on record here.

T1 sequence (P14416 whole entry): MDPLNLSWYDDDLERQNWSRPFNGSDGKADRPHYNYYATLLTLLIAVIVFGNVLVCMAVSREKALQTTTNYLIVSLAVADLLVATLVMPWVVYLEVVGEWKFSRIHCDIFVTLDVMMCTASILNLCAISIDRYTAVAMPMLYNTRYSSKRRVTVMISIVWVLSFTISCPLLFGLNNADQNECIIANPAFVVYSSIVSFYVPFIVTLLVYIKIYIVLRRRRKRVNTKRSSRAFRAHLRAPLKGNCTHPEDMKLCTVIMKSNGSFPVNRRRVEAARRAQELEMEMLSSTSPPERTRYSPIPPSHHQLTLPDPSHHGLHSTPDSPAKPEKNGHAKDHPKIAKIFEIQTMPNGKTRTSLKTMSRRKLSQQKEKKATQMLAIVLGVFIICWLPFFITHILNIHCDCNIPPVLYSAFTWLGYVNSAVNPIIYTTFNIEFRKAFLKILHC

For the molecule `O=C(O)c1cccc(CN2CN(C3CCCCC3)C3(CCN(CCCn4c(=O)[nH]c5ccccc54)CC3)C2=O)c1` [Compound 72, 3-((1-cyclohexyl-4-oxo-8-(3-(2-oxo-2,3-dihydro-1H-benzo[d]imidazol-1-yl)propyl)-1,3,8-triazaspiro[4.5]decan-3-yl)methyl)benzoic acid, formate], the IC50 (in general, the concentration that gives 50% inhibition) was less than 10 nM.

`O=C(O)c1cccc(CN2CN(c3ccccc3)C3(CCN(CC4COc5ccccc5O4)CC3)C2=O)c1` (centres unmarked) [Compound 76, 3-((8-((2,3-Dihydrobenzo[b][1,4]dioxin-2-yl)methyl)-4-oxo-1-phenyl-1,3,8-triazaspiro[4.5]decan-3-yl)methyl)benzoic acid]: the IC50 is less than 10 nM.

As to `O=C(O)c1cccc(CN2CN(c3ccccc3)C3(CCN(CCCn4nnc5ccccc54)CC3)C2=O)c1` [Compound 85, 3-((8-(3-(1H-Benzo[d][1,2,3]triazol-1-yl)propyl)-4-oxo-1-phenyl-1,3,8-triazaspiro[4.5]decan-3-yl)methyl)benzoic acid], the half-inhibitory concentration (IC50) is less than 10 nM.

Take `O=C(O)c1cccc(CN2CN(c3ccccc3)C3(CCN(CCCN4C(=O)Cc5ccccc54)CC3)C2=O)c1` [Compound 89, 3-((4-oxo-8-(3-(2-oxoindolin-1-yl)propyl)-1-phenyl-1,3,8-triazaspiro[4.5]decan-3-yl)methyl)benzoic acid, hydrochloride]: the IC50 was less than 10 nM.

Turning to `O=C(O)c1cccc(CN2CN(c3ccccc3)C3(CCN(CCCn4c(=O)[nH]c5ccc(Cl)cc54)CC3)C2=O)c1` [Compound 100, 3-((8-(3-(6-Chloro-2-oxo-2,3-dihydro-1H-benzo[d]imidazol-1-yl)propyl)-4-oxo-1-phenyl-1,3,8-triazaspiro[4.5]decan-3-yl)methyl)benzoic acid], the IC50 was less than 10 nM.

In the case of `CC(C)(Oc1ccc(CN2CN(c3ccccc3)C3(CCN(CCCn4c(=O)[nH]c5ccccc54)CC3)C2=O)cc1)C(=O)O` [Compound 102, 2-Methyl-2-(4-((4-oxo-8-(3-(2-oxo-2,3-dihydro-1H-benzo[d]imidazol-1-yl)propyl)-1-phenyl-1,3,8-triazaspiro[4.5]decan-3-yl)methyl)phenoxy)propanoic acid], the IC50 is less than 10 nM.

Regarding `O=C(O)c1cccc(CN2CN(c3ccccc3)C3(CCN(CCCn4c(=O)n(C5CC5)c5ccccc54)CC3)C2=O)c1` [Compound 120, 3-((8-(3-(3-Cyclopropyl-2-oxo-2,3-dihydro-1H-benzo[d]imidazol-1-yl)propyl)-4-oxo-1-phenyl-1,3,8-triazaspiro[4.5]decan-3-yl)methyl)benzoic acid], the half-maximal inhibitory concentration (IC50) is less than 10 nM.

In the case of `CC1(C)C(=O)N(CCCN2CCC3(CC2)C(=O)N(Cc2cccc(C(=O)O)c2)CN3c2ccc(F)cc2)c2ccccc21` [Compound 123, 3-((8-(3-(3,3-Dimethyl-2-oxoindolin-1-yl)propyl)-1-(4-fluorophenyl)-4-oxo-1,3,8-triazaspiro[4.5]decan-3-yl)methyl)benzoic acid], the 50% inhibitory concentration (IC50) is less than 10 nM.

For the molecule `O=C(O)c1cccc(CN2CN(c3ccccc3)C3(CCN(CCCN4C(=O)C5(CC5)c5ccccc54)CC3)C2=O)c1` [Compound 130, 3-((4-oxo-8-(3-(2′-oxospiro[cyclopropane-1,3′-indoline]-1′-yl)propyl)-1-phenyl-1,3,8-triazaspiro[4.5]decan-3-yl)methyl)benzoic acid, hydrochloride salt], the IC50 was less than 10 nM.

As for `CC1(C)C(=O)N(CCCN2CCC3(CC2)C(=O)N(Cc2ccccc2C(=O)O)CN3c2ccccc2)c2ccccc21` [Compound 137, 2-((8-(3-(3,3-Dimethyl-2-oxoindolin-1-yl)propyl)-4-oxo-1-phenyl-1,3,8-triazaspiro[4.5]decan-3-yl)methyl)benzoic acid], the IC50 is less than 10 nM.

For `O=C(O)c1cccc(CN2CN(c3ccc(F)cc3)C3(CCN(CCCN4C(=O)C5(CC5)c5ccccc54)CC3)C2=O)c1` [Compound 138, 3-((1-(4-Fluorophenyl)-4-oxo-8-(3-(2′-oxospiro[cyclopropane-1,3′-indoline]-1′-yl)propyl)-1,3,8-triazaspiro[4.5]decan-3-yl)methyl)benzoic acid], the IC50 is less than 10 nM.

`O=C(O)c1cccc(CN2CN(c3ccccc3)C3(CCN(CCCC(=O)c4cccs4)CC3)C2=O)c1` [Compound 143, 3-((4-oxo-8-(4-oxo-4-(thiophen-2-yl)butyl)-1-phenyl-1,3,8-triazaspiro[4.5]decan-3-yl)methyl)benzoic acid, hydrochloride]: the IC50 was less than 10 nM.

On to `O=C(O)c1cccc(CN2CN(c3ccc(F)cc3)C3(CCN(CCCN4C(=O)Cc5ccccc54)CC3)C2=O)c1` [Compound 145, 3-((1-(4-Fluorophenyl)-4-oxo-8-(3-(2-oxoindolin-1-yl)propyl)-1,3,8-triazaspiro[4.5]decan-3-yl)methyl)benzoic acid], for which the IC50 was less than 10 nM.

Turning to `CC1C(=O)N(CCCN2CCC3(CC2)C(=O)N(Cc2cccc(C(=O)O)c2)CN3c2ccccc2)c2ccccc21` (centres unmarked) [Compound 146, 3-((8-(3-(3-methyl-2-oxoindolin-1-yl)propyl)-4-oxo-1-phenyl-1,3,8-triazaspiro[4.5]decan-3-yl)methyl)benzoic acid], the IC50 was less than 10 nM.

For `O=C(O)c1ccccc1CN1CN(c2ccccc2)C2(CCN(CCCN3C(=O)Cc4ccccc43)CC2)C1=O` [Compound 148, 2-((4-Oxo-8-(3-(2-oxoindolin-1-yl)propyl)-1-phenyl-1,3,8-triazaspiro[4.5]decan-3-yl)methyl)benzoic acid], the IC50 is less than 10 nM.

In the case of `O=C(O)c1ccccc1CN1CN(c2ccccc2)C2(CCN(CCCN3C(=O)C4(CC4)c4ccccc43)CC2)C1=O` [Compound 149, 2-((4-Cho-8-(3-(2′-oxospiro[cyclopropane-1,3′-indoline]-1′-yl)propyl)-1-phenyl-1,3,8-triazaspiro[4.5]decan-3-yl)methyl)benzoic acid], the IC50 was less than 10 nM.

For `O=C(O)c1ccccc1CN1CN(c2ccc(F)cc2)C2(CCN(CCCN3C(=O)Cc4ccccc43)CC2)C1=O` [Compound 152, 2-((1-(4-Fluorophenyl)-4-oxo-8-(3-(2-oxoindolin-1-yl)propyl)-1,3,8-triazaspiro[4.5]decan-3-yl)methyl)benzoic acid], the 50% inhibitory concentration (IC50) was less than 10 nM.

Take `O=C(CCCN1CCC2(CC1)C(=O)N(Cc1ccccc1C(=O)O)CN2c1ccccc1)c1ccccc1` [Compound 154, 2-((4-oxo-8-(4-oxo-4-phenylbutyl)-1-phenyl-1,3,8-triazaspiro[4.5]decan-3-yl)methyl)benzoic acid]: the IC50 was less than 10 nM.

As to `O=C(O)c1ccccc1CN1CN(c2ccccc2)C2(CCN(CCCn3c(=O)n(C4CC4)c4ccccc43)CC2)C1=O` [Compound 155, 2-((8-(3-(3-cyclopropyl-2-oxo-2,3-dihydro-1H-benzo[d]imidazol-1-yl)propyl)-4-oxo-1-phenyl-1,3,8-triazaspiro[4.5]decan-3-yl)methyl)benzoic acid], the 50% inhibitory concentration (IC50) was less than 10 nM.

For `O=C(O)c1cccc(CN2CN(c3ccc(F)cc3)C3(CCN(CCCn4c(=O)n(C5CC5)c5ccccc54)CC3)C2=O)c1` [Compound 156, 3-((8-(3-(3-cyclopropyl-2-oxo-2,3-dihydro-1H-benzo[d]imidazol-1-yl)propyl)-1-(4-fluorophenyl)-4-oxo-1,3,8-triazaspiro[4.5]decan-3-yl)methyl)benzoic acid], the IC50 is less than 10 nM.
